Measurements from patent US20250230193A1, “CYCLIC COMPOUND HAVING SELECTIVE KRAS INHIBITORY EFFECT ON HRAS AND NRAS” (CHUGAI SEIYAKU KABUSHIKI KAISHA, priority 2022, published 2025).

Tests used:
[1] = molecular target: GDP-bound NRAS wild-type protein (Homo sapiens, UniProt P01111); assay: Binding to NRAS by surface plasmon resonance (SPR), Single Cycle Kinetics; conditions: KD ratio NRAS/KRAS, class symbols
[2] = molecular target: GDP-bound HRAS wild-type protein (Homo sapiens, UniProt P01112); assay: Binding to HRAS by surface plasmon resonance (SPR), Single Cycle Kinetics; conditions: KD ratio HRAS/KRAS, class symbols
Sequence of GDP-bound HRAS wild-type protein (P01112 whole entry): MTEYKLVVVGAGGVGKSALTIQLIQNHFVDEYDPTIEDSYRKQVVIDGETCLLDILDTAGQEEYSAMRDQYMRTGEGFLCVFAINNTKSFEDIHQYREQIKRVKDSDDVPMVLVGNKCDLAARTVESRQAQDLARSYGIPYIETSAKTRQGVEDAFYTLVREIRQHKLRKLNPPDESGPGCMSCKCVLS

Sequence of GDP-bound NRAS wild-type protein (P01111 whole entry): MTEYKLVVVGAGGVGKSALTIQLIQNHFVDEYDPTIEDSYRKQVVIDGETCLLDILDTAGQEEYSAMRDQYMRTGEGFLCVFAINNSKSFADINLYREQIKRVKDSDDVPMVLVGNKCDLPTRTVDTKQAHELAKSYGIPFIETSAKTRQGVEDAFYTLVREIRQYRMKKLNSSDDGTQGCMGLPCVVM

SMILES | NRAS/KRAS (ratio of KD value with respect to GDP-bound NRAS wild-type protein to KD value with respect to KRAS) [1] | HRAS/KRAS (ratio of KD value with respect to GDP-bound HRAS wild-type protein to KD value with respect to KRAS) [2]
CCOC[C@H]1C(=O)N[C@@H]([C@@H](C)CC)C(=O)N(C)CC(=O)N(C)[C@H]2C/C=C\CCN(C2=O)[C@@H](Cc2ccc(C(F)(F)F)cc2)C(=O)N(C)CC(=O)N[C@@H](CCc2ccc(Cl)c(Cl)c2)C(=O)N2C[C@H](OCC)C[C@H]2C(=O)NC2(CC(C)(C)C2)C(=O)N(C)[C@@H](CC(C)(C)C)C(=O)N(C)[C@H](C(=O)N(C)C)CC(=O)N1C [PP2740] | AA (a compound having 20 or more is denoted as AA) | A (a compound having 10 or more and less than 20 is denoted as A)
CCC[C@H]1C(=O)N[C@@H]([C@@H](C)CC)C(=O)N(C2CC2)CC(=O)N(C)[C@H]2C/C=C\CCN(C2=O)[C@@H](Cc2ccc(C(F)(F)F)cc2)C(=O)N(C)CC(=O)N[C@@H](CCc2cc(F)c(C(F)(F)F)c(F)c2)C(=O)N2C[C@H](OCC)C[C@H]2C(=O)NC2(CC(C)(C)C2)C(=O)N(C)[C@@H](CC(C)(C)C)C(=O)N(C)[C@H](C(=O)N(C)C)CC(=O)N1C [PP2742] | AA (a compound having 20 or more is denoted as AA) | A (a compound having 10 or more and less than 20 is denoted as A)
CCO[C@@H]1C[C@H]2C(=O)NC3(CC(C)(C)C3)C(=O)N(C)[C@@H](CC(C)(C)C)C(=O)N(C)[C@H](C(=O)N(C)C)CC(=O)N(C)[C@@H](COC)C(=O)N[C@@H]([C@@H](C)CC)C(=O)N(C3CC3)CC(=O)N(C)[C@H]3C/C=C\CCN(C3=O)[C@@H](Cc3ccc(C(F)(F)F)cc3)C(=O)N(C)CC(=O)N[C@@H](CCc3cc(F)c(C(F)(F)F)c(F)c3)C(=O)N2C1 [PP2744] | A (a compound having 10 or more and less than 20 is denoted as A) | A (a compound having 10 or more and less than 20 is denoted as A)
CCC[C@H]1C(=O)N[C@@H]([C@@H](C)CC)C(=O)N(C2CC2)CC(=O)N(C)[C@H]2C/C=C\CCN(C2=O)[C@@H](Cc2ccc(C(F)(F)F)cc2)C(=O)N(C)CC(=O)N[C@@H](CCc2ccc(C(F)(F)F)c(OC)c2)C(=O)N2C[C@H](OCC)C[C@H]2C(=O)NC2(CC(C)(C)C2)C(=O)N(C)[C@@H](CC(C)(C)C)C(=O)N(C)[C@H](C(=O)N(C)C)CC(=O)N1C [PP2746] | A (a compound having 10 or more and less than 20 is denoted as A) | A (a compound having 10 or more and less than 20 is denoted as A)
CCO[C@@H]1C[C@H]2C(=O)NC3(CC(C)(C)C3)C(=O)N(C)[C@@H](CC(C)(C)C)C(=O)N(C)[C@H](C(=O)N(C)C)CC(=O)N(C)[C@@H](COC)C(=O)N[C@@H]([C@@H](C)CC)C(=O)N(C3CC3)CC(=O)N(C)[C@H]3C/C=C\CCN(C3=O)[C@@H](Cc3ccc(C(F)(F)F)cc3)C(=O)N(C)CC(=O)N[C@@H](CCc3ccc(C(F)(F)F)c(OC)c3)C(=O)N2C1 [PP2748] | A (a compound having 10 or more and less than 20 is denoted as A) | A (a compound having 10 or more and less than 20 is denoted as A)
CCC[C@H]1C(=O)N[C@@H]([C@@H](C)CC)C(=O)N(C2CC2)CC(=O)N(C)[C@H]2C/C=C\CCN(C2=O)[C@@H](Cc2ccc(C(F)(F)F)cc2)C(=O)N(C)CC(=O)N[C@@H](CCc2ccc(Cl)c(Cl)c2)C(=O)N2C[C@H](OCC)C[C@H]2C(=O)NC2(CC(C)(C)C2)C(=O)N(C)[C@@H](CC(C)(C)C)C(=O)N(C)[C@H](C(=O)N(C)C)CC(=O)N1C [PP2749] | AA (a compound having 20 or more is denoted as AA) | A (a compound having 10 or more and less than 20 is denoted as A)
CCO[C@@H]1C[C@H]2C(=O)NC3(CC(C)(C)C3)C(=O)N(C)[C@@H](CC(C)(C)C)C(=O)N(C)[C@H](C(=O)N(C)C)CC(=O)N(C)[C@@H](COC)C(=O)N[C@@H]([C@@H](C)CC)C(=O)N(C3CC3)CC(=O)N(C)[C@H]3C/C=C\CCN(C3=O)[C@@H](Cc3ccc(C(F)(F)F)cc3)C(=O)N(C)CC(=O)N[C@@H](CCc3ccc(Cl)c(Cl)c3)C(=O)N2C1 [PP2750] | AA (a compound having 20 or more is denoted as AA) | A (a compound having 10 or more and less than 20 is denoted as A)
CCC[C@H]1C(=O)N[C@@H]([C@@H](C)CC)C(=O)N(C)CC(=O)N(C)[C@H]2C/C=C\CCN(C2=O)[C@@H](Cc2ccc(C)cc2)C(=O)N(C)CC(=O)N[C@@H](CCc2cc(F)c(C(F)(F)F)c(F)c2)C(=O)N2C[C@H](OCC)C[C@H]2C(=O)NC2(CC(C)(C)C2)C(=O)N(C)[C@@H](CC2CCC2)C(=O)N(C)[C@H](C(=O)N(C)C)CC(=O)N1C [PP2751] | A (a compound having 10 or more and less than 20 is denoted as A) | A (a compound having 10 or more and less than 20 is denoted as A)
CCCOC[C@H]1C(=O)N[C@@H]([C@@H](C)CC)C(=O)N(C)CC(=O)N(C)[C@H]2C/C=C\CCN(C2=O)[C@@H](Cc2ccc(C)cc2)C(=O)N(C)CC(=O)N[C@@H](CCc2cc(F)c(C(F)(F)F)c(F)c2)C(=O)N2C[C@H](OCC)C[C@H]2C(=O)NC2(CC(C)(C)C2)C(=O)N(C)[C@@H](CC2CCC2)C(=O)N(C)[C@H](C(=O)N(C)C)CC(=O)N1C [PP2752] | A (a compound having 10 or more and less than 20 is denoted as A) | A (a compound having 10 or more and less than 20 is denoted as A)
CCC[C@H]1C(=O)N[C@@H]([C@@H](C)CC)C(=O)N(C)CC(=O)N(C)[C@H]2C/C=C\CCN(C2=O)[C@@H](Cc2ccc(C)cc2)C(=O)N(C)CC(=O)N[C@@H](CCc2ccc(C(F)(F)F)c(OC)c2)C(=O)N2C[C@H](OCC)C[C@H]2C(=O)NC2(CC(C)(C)C2)C(=O)N(C)[C@@H](CC2CCC2)C(=O)N(C)[C@H](C(=O)N(C)C)CC(=O)N1C [PP2753] | A (a compound having 10 or more and less than 20 is denoted as A) | B (a compound having 3 or more and less than 10 is denoted as B)
CCC[C@H]1C(=O)N[C@@H]([C@@H](C)CC)C(=O)N(C)CC(=O)N(C)[C@H]2C/C=C\CCN(C2=O)[C@@H](Cc2ccc(C)cc2)C(=O)N(C)CC(=O)N[C@@H](CCc2ccc(Cl)c(Cl)c2)C(=O)N2C[C@H](OCC)C[C@H]2C(=O)NC2(CC(C)(C)C2)C(=O)N(C)[C@@H](CC2CCC2)C(=O)N(C)[C@H](C(=O)N(C)C)CC(=O)N1C [PP2755] | A (a compound having 10 or more and less than 20 is denoted as A) | A (a compound having 10 or more and less than 20 is denoted as A)
CCC[C@H]1C(=O)N[C@@H]([C@@H](C)CC)C(=O)N(C2CC2)CC(=O)N(C)[C@H]2C/C=C\CCN(C2=O)[C@@H](Cc2ccc(C)cc2)C(=O)N(C)CC(=O)N[C@@H](CCc2ccc(Cl)c(Cl)c2)C(=O)N2C[C@H](OCC)C[C@H]2C(=O)NC2(CC(C)(C)C2)C(=O)N(C)[C@@H](CC2CCC2)C(=O)N(C)[C@H](C(=O)N(C)C)CC(=O)N1C [PP2761] | A (a compound having 10 or more and less than 20 is denoted as A) | A (a compound having 10 or more and less than 20 is denoted as A)
CCOC[C@H]1C(=O)N[C@@H]([C@@H](C)CC)C(=O)N(C2CC2)CC(=O)N(C)[C@H]2C/C=C\CCN(C2=O)[C@@H](Cc2ccc(C)cc2)C(=O)N(C)CC(=O)N[C@@H](CCc2ccc(Cl)c(Cl)c2)C(=O)N2C[C@H](OCC)C[C@H]2C(=O)NC2(CC(C)(C)C2)C(=O)N(C)[C@@H](CC2CCC2)C(=O)N(C)[C@H](C(=O)N(C)C)CC(=O)N1C [PP2762] | A (a compound having 10 or more and less than 20 is denoted as A) | A (a compound having 10 or more and less than 20 is denoted as A)
CCOC[C@H]1C(=O)N[C@@H]([C@@H](C)CC)C(=O)N(C)CC(=O)N(C)[C@H]2C/C=C\CCN(C2=O)[C@@H](Cc2ccc(C(F)(F)F)cc2)C(=O)N(C)CC(=O)N[C@@H](CCc2cc(F)c(C(F)(F)F)c(F)c2)C(=O)N2C[C@H](OCC)C[C@H]2C(=O)NC2(CC(C)(C)C2)C(=O)N(C)[C@@H](CC2CCC2)C(=O)N(C)[C@H](C(=O)N(C)C)CC(=O)N1C [PP2763] | A (a compound having 10 or more and less than 20 is denoted as A) | A (a compound having 10 or more and less than 20 is denoted as A)
CCC[C@H]1C(=O)N[C@@H]([C@@H](C)CC)C(=O)N(C)CC(=O)N(C)[C@H]2C/C=C\CCN(C2=O)[C@@H](Cc2ccc(C(F)(F)F)cc2)C(=O)N(C)CC(=O)N[C@@H](CCc2ccc(C(F)(F)F)c(OC)c2)C(=O)N2C[C@H](OCC)C[C@H]2C(=O)NC2(CC(C)(C)C2)C(=O)N(C)[C@@H](CC2CCC2)C(=O)N(C)[C@H](C(=O)N(C)C)CC(=O)N1C [PP2764] | A (a compound having 10 or more and less than 20 is denoted as A) | A (a compound having 10 or more and less than 20 is denoted as A)
